Source: US9149540B2, “Polymer conjugate of folic acid or folic acid derivative” (Nippon Kayaku Kabushiki Kaisha, priority 2008, dated 2015)
Values joined by “and” are separate entries in the source; they are usually repeats but may differ in a detail not shown here. Identical values can stand only once.

What was measured:
[1] = tested on: rat collagen-induced arthritis model; assay: Anti-inflammatory evaluation 2 using rat collagen-induced arthritis model (Test Example 4); type: in vivo; conditions: 8th, 15th and 22nd day after sensitization
Experimental: The test was carried out in the same manner as in Test Example 3. […] The groups administered with 1.00 mg/kg (convert to dose of MTX) and 1.25 mg/kg (convert to dose of MTX) of MTX_G-40, and the group administered with 2.5 mg/kg of MTX were administered with the drug through the tail vein on the 1st day, 8th day, 15th day and 22nd day after sensitization.

[2] = tested on: Mouse colon cancer Colon 26; assay: Antitumor effect on mouse colon cancer Colon 26-transplanted mouse; type: in vivo; conditions: for Relative tumor volume mean ± SD: 12th day after initiation of administration, day of initiation = 1.0; for suppression of tumor growth (in words) / dose dependence of tumor growth suppression (in words): single administration; for dose dependence of tumor growth suppression (in words): doses of Table 1
Experimental: Mouse colon cancer Colon 26 cells subcutaneously subcultured in a BALB/c mouse were prepared in the form of a block which measured about 2 mm on each side, and the block was subcutaneously transplanted on the dorsal part of a CDF1 mouse using a trocar. […] The tumor volume on the day of initiation of administration was taken as 1.0, and while taking the 12th day after the initiation of administration as the day of determination, the relative tumor volume of each administered group was determined. The dose in the compounds of the present invention is converted to that of MTX.

[3] = tested on: rat collagen-induced arthritis model; assay: Anti-inflammatory evaluation using rat collagen-induced arthritis model (Test Example 3)
[4] = 15 mg/kg/day tail vein, 5 successive days (total 75 mg/kg)
[5] = once 25 mg/kg in terms of MTX, tail vein
[6] = once 25 mg/kg in terms of MTX, tail vein, 25 mg/kg
[7] = once 50 mg/kg in terms of MTX, tail vein

CN(Cc1cnc2nc(N)nc(N)c2n1)c1ccc(C(=O)N[C@@H](CCC(=O)O)C(=O)O)cc1 [MTX, methotrexate, reference compound]
anti-inflammatory effect, arthritis score of left footpad (FIG. 3) ([1]; 2.5 mg/kg tail vein on 1st): delayed the time of onset of inflammation as compared with the control group
antitumor effect (in words) ([2]; 15 mg/kg for 5 successive days): an antitumor effect was not observed
Toxicity (death/n) [2, 4]: 0/3
Relative tumor volume mean ± SD [2, 4]: 12.2 and 12.2 ± 8.1
death of toxicity (in words) ([2]; 20 mg/kg for 5 successive days): all of the animals died of toxicity
Toxicity (death/n) ([2]; 20 mg/kg/day tail vein, 5 successive days (total 100 mg/kg)): 3/3
anti-inflammatory effect, arthritis score of left footpad (FIG. 2) ([3]; 2.5 mg/kg tail vein on 1st and 8th day after sensitization): no anti-inflammatory effects were observed

PEG-Asp40(α-Tyramine-MTX)-Ac [MTX_A-40]
Toxicity (death/n) [2, 5]: 0/3
Relative tumor volume mean ± SD [2, 6]: 6.8 and 6.8 ± 0.7
death of toxicity (in words) ([2]; once 50 mg/kg in terms of MTX): one animal died of toxicity
Toxicity (death/n) [2, 7]: 1/3
Relative tumor volume mean ± SD ([2]; once 50 mg/kg in terms of MTX, tail vein, 50 mg/kg): 4.8 and 4.8 ± 2.8
suppression of tumor growth (in words) [2]: strongly suppress the growth of tumor with a single administration
dose dependence of tumor growth suppression (in words) [2]: tumor growth is suppressed in a manner dependent on the amount of administration
anti-inflammatory effect, arthritis score of left footpad (FIG. 2) ([3]; 2.5 mg/kg on 1st day, or 1.25 mg/kg on 1st and 8th day after sensitization, in terms of MTX, tail vein): delayed the time of onset of inflammation

PEG-Asp40(γ-Tyramine-MTX)-Ac [MTX_G-40]
anti-inflammatory effect, arthritis score of left footpad (FIG. 3) ([1]; 1.00 mg/kg (dose of MTX) tail vein on 1st): further delayed the time of onset of inflammation compared to MTX
anti-inflammatory effect, arthritis score of left footpad (FIG. 3) ([1]; 1.25 mg/kg (dose of MTX) tail vein on 1st): completely suppressed the onset of inflammation for the 28 days of monitoring

PEG-Asp44(γ-Tyramine-MTX)-Ac [MTX_G-44]
Toxicity (death/n) ([2]; once 12.5 mg/kg in terms of MTX, tail vein): 0/3
Relative tumor volume mean ± SD ([2]; once 12.5 mg/kg in terms of MTX, tail vein, 12.5 mg/kg): 8.2 and 8.2 ± 1.0
death of toxicity (in words) ([2]; once 25 mg/kg in terms of MTX): one animal died of toxicity
Toxicity (death/n) [2, 5]: 1/3
Relative tumor volume mean ± SD [2, 6]: 2.3 and 2.3 ± 1.1
Toxicity (death/n) [2, 7]: 1/3
Relative tumor volume mean ± SD [2, 7]: 0.4 ± 0.1
suppression of tumor growth (in words) [2]: strongly suppress the growth of tumor with a single administration
dose dependence of tumor growth suppression (in words) [2]: tumor growth is suppressed in a manner dependent on the amount of administration
